The target of the assay is human ACC2 (Homo sapiens (Human), UniProt O00763). The assay is described as follows: ACC2 assay: spectrophotometric 384 well assay (coupled lactate dehydrogenase/pyruvate kinase). The following applies: hACC2 construct lacking the 128 N-terminal amino acids, 25° C., 340 nm. The class given is biochemical. How it is done: Spectrophotometric 384 Well Assay
Malonyl CoA formation by acetyl CoA carboxylases is stoichiometrically linked to the consumption of ATP. ACC2 activity is measured in a […] kinetic method measuring ADP generated during the ACC reaction using a coupled lactate dehydrogenase/pyruvate kinase reaction.
For biological testing, a human ACC2 construct which lacks the 128 amino acids at the N-terminus for increased solubility (nt 385-6966 in Genbank entry AJ575592) is cloned. The protein is then expressed in insect cells using a baculoviral expression system. Protein purification is performed by anion exchange.
All compounds are dissolved in dimethyl sulfoxide (DMSO) to a concentration of 10 mM.
Assay reactions are then carried out in 384-well plates, with hACC2 in an appropriate dilution and at final assay concentrations (f.c.) of 100 mM Tris (pH 7.5), 10 mM trisodium citrate, 25 mM KHCO3, 10 mM MgCl2, 0.5 mg/ml BSA, 3.75 mM reduced L-glutathione, 15 U/ml lactate dehydrogenase, 0.5 mM phosphoenolpyruvate, 15 U/ml pyruvate kinase, compounds at different concentrations at final DMSO concentrations of 1%.
The enzymatic reaction is then started by addition of a mixture of NADH, acetyl Coenzyme A (both […].) and ATP (500 uM f.c.). The decrease of the optical density (slope S) is then determined at 25° C. at a wavelength of 340 nm over 15 minutes in a spectrophotometric reader.
Each assay microtiter plate contains wells with vehicle instead of compound as controls for the non-inhibited enzyme (100% CTL; ‘HIGH’) and wells without acetyl-CoA as controls for non-specific NADH degradation (0% CTL; ‘LOW’).
The slope S is used for calculation of % CTL=(S(compound)−S(‘LOW’))/(S(‘HIGH’)−S(‘LOW’))*100. Compounds will give values between 100% CTL (no inhibition) and 0% CTL (complete inhibition).
For IC50 value determination, the sample slope in the presence of the test compound after subtraction of the low controls (S(compound)−S(‘LOW’)) are used.
An IC50 value is derived from the compound slopes at different dosages after subtraction of the low controls (S(compound)-S(‘LOW’)) by non-linear regression curve fitting (equation y=(A+((B−A)/(1+((C/x)^D))))).

In general, IC50 refers to the concentration needed to halve the response being measured.

Chain of human ACC2 (O00763 129-2458): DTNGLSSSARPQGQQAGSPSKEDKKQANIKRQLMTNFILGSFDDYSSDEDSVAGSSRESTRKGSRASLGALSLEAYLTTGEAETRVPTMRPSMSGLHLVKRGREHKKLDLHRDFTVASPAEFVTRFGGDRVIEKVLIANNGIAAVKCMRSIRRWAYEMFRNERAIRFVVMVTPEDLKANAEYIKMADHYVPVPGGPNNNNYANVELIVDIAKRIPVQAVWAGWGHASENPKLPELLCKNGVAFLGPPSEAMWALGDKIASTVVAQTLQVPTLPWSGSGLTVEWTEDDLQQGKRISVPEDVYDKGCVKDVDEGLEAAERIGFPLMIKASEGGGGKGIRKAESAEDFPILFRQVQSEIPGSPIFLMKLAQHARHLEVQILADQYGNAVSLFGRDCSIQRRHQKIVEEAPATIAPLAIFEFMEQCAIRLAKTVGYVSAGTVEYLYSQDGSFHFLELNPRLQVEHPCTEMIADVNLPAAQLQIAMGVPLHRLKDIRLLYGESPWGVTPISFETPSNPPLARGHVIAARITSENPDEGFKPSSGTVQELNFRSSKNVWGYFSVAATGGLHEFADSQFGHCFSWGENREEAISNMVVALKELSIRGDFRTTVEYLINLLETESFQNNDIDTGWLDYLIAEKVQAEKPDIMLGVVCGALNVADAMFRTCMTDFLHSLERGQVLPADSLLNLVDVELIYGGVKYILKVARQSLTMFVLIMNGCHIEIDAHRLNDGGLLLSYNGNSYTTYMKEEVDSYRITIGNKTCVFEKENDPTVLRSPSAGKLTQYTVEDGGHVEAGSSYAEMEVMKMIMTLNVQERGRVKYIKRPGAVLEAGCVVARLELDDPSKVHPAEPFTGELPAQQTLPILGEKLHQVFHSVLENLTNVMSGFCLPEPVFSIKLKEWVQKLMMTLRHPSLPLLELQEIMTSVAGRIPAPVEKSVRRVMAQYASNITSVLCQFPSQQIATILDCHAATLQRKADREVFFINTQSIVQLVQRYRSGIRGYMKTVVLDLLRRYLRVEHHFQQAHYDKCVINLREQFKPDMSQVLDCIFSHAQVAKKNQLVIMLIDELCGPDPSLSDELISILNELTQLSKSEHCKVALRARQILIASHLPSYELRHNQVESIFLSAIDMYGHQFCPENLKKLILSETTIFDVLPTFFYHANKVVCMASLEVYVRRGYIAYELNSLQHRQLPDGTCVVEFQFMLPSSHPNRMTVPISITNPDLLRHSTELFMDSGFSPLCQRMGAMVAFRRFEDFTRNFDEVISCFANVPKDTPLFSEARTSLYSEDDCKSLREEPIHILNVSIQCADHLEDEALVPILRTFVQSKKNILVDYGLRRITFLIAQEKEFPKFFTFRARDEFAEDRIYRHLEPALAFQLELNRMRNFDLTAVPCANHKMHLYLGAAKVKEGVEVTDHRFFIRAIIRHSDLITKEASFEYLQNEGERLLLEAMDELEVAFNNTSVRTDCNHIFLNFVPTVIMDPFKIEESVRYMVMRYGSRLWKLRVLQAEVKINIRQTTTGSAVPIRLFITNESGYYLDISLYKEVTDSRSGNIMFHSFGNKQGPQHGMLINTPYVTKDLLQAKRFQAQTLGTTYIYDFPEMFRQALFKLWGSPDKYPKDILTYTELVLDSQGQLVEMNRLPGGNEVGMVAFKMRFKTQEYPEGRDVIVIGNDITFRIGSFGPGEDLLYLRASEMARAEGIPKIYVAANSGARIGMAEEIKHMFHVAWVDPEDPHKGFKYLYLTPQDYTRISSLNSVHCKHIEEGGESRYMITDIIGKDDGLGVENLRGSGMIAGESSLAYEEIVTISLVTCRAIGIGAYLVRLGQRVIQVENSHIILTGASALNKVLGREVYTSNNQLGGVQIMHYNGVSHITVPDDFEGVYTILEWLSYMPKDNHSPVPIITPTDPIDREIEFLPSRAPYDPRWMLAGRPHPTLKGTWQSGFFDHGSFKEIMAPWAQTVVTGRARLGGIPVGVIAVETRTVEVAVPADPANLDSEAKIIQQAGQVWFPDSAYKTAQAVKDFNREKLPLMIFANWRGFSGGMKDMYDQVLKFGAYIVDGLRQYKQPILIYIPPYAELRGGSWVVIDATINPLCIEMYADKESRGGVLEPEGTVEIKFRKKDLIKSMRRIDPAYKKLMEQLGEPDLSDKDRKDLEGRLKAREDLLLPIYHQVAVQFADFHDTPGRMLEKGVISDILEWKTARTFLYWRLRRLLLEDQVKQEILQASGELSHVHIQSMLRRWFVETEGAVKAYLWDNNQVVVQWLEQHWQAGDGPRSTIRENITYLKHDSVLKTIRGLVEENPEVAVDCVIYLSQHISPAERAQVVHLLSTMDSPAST

In the case of `CC(=O)NC(C)c1ccc(CN2CCc3cc(C(F)(F)F)ccc3C2)cc1` (centres unmarked) [Example 1.001, N-{1-[4-(6-Trifluoromethyl-3,4-dihydro-1H-isoquinolin-2-ylmethyl)-phenyl]-ethyl}-acetamide], the IC50 was determined as 293 nM. That is a sub-micromolar value.
Consider `COC(=O)c1ccc2c(c1)CCN(Cc1ccc(C(C)NC(C)=O)cc1)C2` (centres unmarked) [Example 1.002], for which the midpoint of inhibition, the IC50, lay at 524 nM.
For `CC(=O)NC(C)c1ccc(CN2CCc3cc(Br)ccc3C2)cc1` (centres unmarked) [Example 1.003], the IC50 is 265 nM.
For the compound `CC(=O)NC(C)c1ccc(CN2CCc3c(Cl)cccc3C2)cc1` (centres unmarked) [Example 1.004], the IC50 was found to be 206 nM.
In the case of `CC(=O)NC(C)c1ccc(CN2CCc3c(cccc3OC(C)C)C2)cc1` (centres unmarked) [Example 1.005], the IC50 came to 252 nM.
The compound `CC(=O)NC(C)c1ccc(CN2CCc3c(cccc3OCC3CC3)C2)cc1` (centres unmarked) [Example 1.006] displayed a half-maximal inhibitory concentration (IC50) of 878 nM. Against the preceding compound, the IC50 is about 3.5-fold higher.
`CC(=O)NC(C)c1ccc(CN2CCc3cc(OC(F)(F)F)ccc3C2)cc1` (centres unmarked) [Example 1.007] yielded an IC50 of 291 nM. This IC50 lies about 3-fold lower than the previous one.
With `CC(=O)NC(C)c1ccc(CN2CCc3c(cccc3OCC3CC3(F)F)C2)cc1` (centres unmarked) [Example 1.008], half-maximal inhibition (IC50) required 492 nM. This IC50 lies about 1.7-fold higher than the previous one.
With `CC(=O)NC(C)c1ccc(CN2CCc3cc(OCC(C)C)ccc3C2)cc1` (centres unmarked) [Example 1.009], the IC50 worked out at 102 nM.
As to `CC(=O)NC(C)c1ccc(CN2CCc3cc(OCC(F)F)ccc3C2)cc1` (centres unmarked) [Example 1.010], the IC50 worked out at 614 nM. Against the preceding compound, the IC50 is about 6-fold higher.
On to `CC(=O)NC(C)c1ccc(CN2CCc3cc(OCC4CCC4)ccc3C2)cc1` (centres unmarked) [Example 1.011], for which the IC50 was 67 nM.
Compound `CC(=O)NC(C)c1ccc(CN2CCc3cc(OCCC4CC4)ccc3C2)cc1` (centres unmarked) [Example 1.012] showed an IC50 of 52 nM. The IC50 values of the last two compounds are within 1.5-fold of each other.
For the compound `CC(=O)NC(C)c1ccc(CN2CCc3cc(OCCCF)ccc3C2)cc1` (centres unmarked) [Example 1.013], the IC50 worked out at 146 nM. This IC50 lies about 2.8-fold higher than the previous one.
`CC(=O)NC(C)c1ccc(CN2CCc3cc(OCCC(F)(F)F)ccc3C2)cc1` (centres unmarked) [Example 1.014] gave an IC50 of 95 nM.
With `CC(=O)NC(C)c1ccc(CN2CCc3cc(OCC4CC(F)(F)C4)ccc3C2)cc1` (centres unmarked) [Example 1.015], inhibition was half-maximal at 47 nM (IC50).
The figure for `CCOc1ccc2c(c1)CCN(Cc1ccc(C(C)NC(C)=O)cc1)C2` (centres unmarked) [Example 1.016] is 273 nM; for `CCCOc1ccc2c(c1)CCN(Cc1ccc(C(C)NC(C)=O)cc1)C2` (centres unmarked) [Example 1.017] it is 60 nM; for `CCOc1cccc2c1CCN(Cc1ccc(C(C)NC(C)=O)cc1)C2` (centres unmarked) [Example 1.018] it is 407 nM.
For `CCCOc1cccc2c1CCN(Cc1ccc(C(C)NC(C)=O)cc1)C2` (centres unmarked) [Example 1.019], it took 326 nM to reach half-maximal inhibition (IC50).
For the compound `CC(=O)NC(C)c1ccc(CN2CCc3cc(OC4CCC4)ccc3C2)cc1` (centres unmarked) [Example 1.020], the IC50 came to 110 nM. Compared with the last compound, the IC50 is about 3-fold lower.
`CC(=O)NC(C)c1ccc(CN2CCc3cc(OC(C)C)ccc3C2)cc1` (centres unmarked) [Example 1.021] gave an IC50 of 110 nM.
The compound `CC(=O)NC(C)c1ccc(CN2CCc3c(ccc(OCC4CC4)c3Br)C2)cc1` (centres unmarked) [Example 1.022] displayed an IC50 of 126 nM.
Take `COc1c(OCC2CC2)ccc2c1CCN(Cc1ccc(C(C)NC(C)=O)cc1)C2` (centres unmarked) [Example 1.023]: 133 nM corresponded to half-maximal inhibition (IC50).
`COc1ccc2c(c1Cl)CCN(Cc1ccc(C(C)NC(C)=O)cc1)C2` (centres unmarked) [Example 1.024] gave an IC50 of 415 nM.
Consider `CC(=O)NC(C)c1ccc(CN2CCc3c(ccc(OCC4CC4(F)F)c3Cl)C2)cc1` (centres unmarked) [Example 1.025], for which it took 49 nM to reach half-maximal inhibition (IC50). This IC50 lies about 8.5-fold lower than the previous one.
Consider `CC(=O)NC(C)c1ccc(CN2CCc3c(ccc(OCC4CC4)c3Cl)C2)cc1` (centres unmarked) [Example 1.026], for which the IC50 amounted to 43 nM.
Take `CC(=O)NC(C)c1ccc(CN2CCc3c(cccc3C(F)F)C2)cc1` (centres unmarked) [Example 1.027]: the IC50 worked out at 699 nM. This IC50 is about 16-fold higher than that of the compound before.
The compound `CC(=O)NC(C)c1ccc(CN2CCc3cc(C(F)F)ccc3C2)cc1` (centres unmarked) [Example 1.028] displayed a half-maximal inhibitory concentration (IC50) of 789 nM.
The figure for `CC(=O)NC(C)c1ccc(CN2CCc3c(ccc4c3OCCO4)C2)cc1` (centres unmarked) [Example 1.029] is 228 nM; for `CC(=O)NC(C)c1ccc(CN2CCc3c(ccc(OCC(C)C)c3Cl)C2)cc1` (centres unmarked) [Example 1.030] it is 58 nM; for `CC(=O)NC(C)c1ccc(CN2CCc3c(ccc(OCC4CC4(F)F)c3Br)C2)cc1` (centres unmarked) [Example 1.031] it is 76 nM.
Compound `CCOc1ccc2c(c1Cl)CCN(Cc1ccc(C(C)NC(C)=O)cc1)C2` (centres unmarked) [Example 1.032] showed an IC50 of 263 nM.
As to `CC(=O)NC(C)c1ccc(CN2CCc3c(ccc(OCC4CCC4)c3Cl)C2)cc1` (centres unmarked) [Example 1.033], the midpoint of inhibition, the IC50, lay at 44 nM.
`CC(=O)NC(C)c1ccc(CN2CCc3c(ccc(OCCC(F)(F)F)c3Cl)C2)cc1` (centres unmarked) [Example 1.034] had an IC50 of 54 nM.
The figure for `CC(=O)NC(C)c1ccc(CN2CCc3c(ccc(OCCC4CC4)c3Cl)C2)cc1` (centres unmarked) [Example 1.035] is 61 nM.
`COc1c(OCc2ccccc2)ccc2c1CCN(Cc1ccc(C(C)NC(C)=O)cc1)C2` (centres unmarked) [Example 1.036] yielded an IC50 of 101 nM.
The figure for `CC(=O)NC(C)c1ccc(CN2CCc3c(ccc(OC4CCC4)c3Cl)C2)cc1` (centres unmarked) [Example 1.037] is 80 nM; for `CC(=O)NC(C)c1ccc(CN2CCc3c(ccc(OCC(F)F)c3Cl)C2)cc1` (centres unmarked) [Example 1.038] it is 218 nM.
The same measure for `CC(=O)NC(C)c1ccc(CN2CCc3c(ccc(OCCCF)c3Cl)C2)cc1` (centres unmarked) [Example 1.039]: 57 nM.
The figure for `CCCOc1ccc2c(c1)CCN(Cc1ccc([C@H](C)NC(=O)C3CC3)cc1)C2` [Example 1.041] is 57 nM; for `C[C@H](NC(=O)C1CC1)c1ccc(CN2CCc3cc(OCC4CC4)ccc3C2)cc1` [Example 1.042] it is 65 nM; for `CCOc1ccc2c(c1)CCN(Cc1ccc([C@H](C)NC(=O)C3CC3)cc1)C2` [Example 1.043] it is 180 nM.
Regarding `C[C@H](NC(=O)C1CC1)c1ccc(CN2CCc3cc(OC4CCC4)ccc3C2)cc1` [Example 1.044], the half-inhibitory concentration (IC50) was found to be 193 nM.
`C[C@H](NC(=O)C1CC1)c1ccc(CN2CCc3cc(OCCC(F)(F)F)ccc3C2)cc1` [Example 1.045] came in with an IC50 of 83 nM.
The same measure for `C[C@H](NC(=O)C1CC1)c1ccc(CN2CCc3cc(OCC(F)F)ccc3C2)cc1` [Example 1.046]: 163 nM; for `CC(C)Oc1ccc2c(c1)CCN(Cc1ccc([C@H](C)NC(=O)C3CC3)cc1)C2` [Example 1.047]: 71 nM.
The same measure for `COc1c(OCC2CC2)ccc2c1CCN(Cc1ccc([C@H](C)NC(=O)C3CC3)cc1)C2` [Example 1.048]: 139 nM.
On to `C[C@H](NC(=O)C1CC1)c1ccc(CN2CCc3c(ccc(OCC4CC4(F)F)c3Cl)C2)cc1` (some centres unmarked) [Example 1.049], for which the concentration for half-maximal inhibition (IC50) was 63 nM.
Compound `C[C@H](NC(=O)C1CC1)c1ccc(CN2CCc3c(ccc(OCC4CC4)c3Cl)C2)cc1` [Example 1.050] had an IC50 of 120 nM.
The same measure for `C[C@H](NC(=O)C1CC1)c1ccc(CN2CCc3cc(OC[C@@H]4CC4(F)F)ccc3C2)cc1` [Example 1.051]: 31 nM; for `C[C@H](NC(=O)C1CC1)c1ccc(CN2CCc3cc(OC[C@H]4CC4(F)F)ccc3C2)cc1` [Example 1.052]: 24 nM; for `COc1c(OCC2CC2(F)F)ccc2c1CCN(Cc1ccc([C@H](C)NC(=O)C3CC3)cc1)C2` (some centres unmarked) [Example 1.053]: 142 nM.
For `COc1c(OCCC(F)(F)F)ccc2c1CCN(Cc1ccc([C@H](C)NC(=O)C3CC3)cc1)C2` [Example 1.054], the 50% inhibitory concentration (IC50) was found to be 269 nM. This IC50 lies about 1.9-fold higher than the previous one.
The same measure for `COc1c(OCC2CCC2)ccc2c1CCN(Cc1ccc([C@H](C)NC(=O)C3CC3)cc1)C2` [Example 1.055]: 41 nM; for `COc1c(OCC2CC(F)(F)C2)ccc2c1CCN(Cc1ccc([C@H](C)NC(=O)C3CC3)cc1)C2` [Example 1.056]: 51 nM.
As to `COc1c(OCC(C)C)ccc2c1CCN(Cc1ccc([C@H](C)NC(=O)C3CC3)cc1)C2` [Example 1.057], 102 nM corresponded to half-maximal inhibition (IC50).
In turn, `COc1c(OCCC2CC2)ccc2c1CCN(Cc1ccc([C@H](C)NC(=O)C3CC3)cc1)C2` [Example 1.058] displayed an IC50 of 137 nM.
Take `C[C@H](NC(=O)C1CC1)c1ccc(CN2Cc3ccc(OCC4CC4)cc3C(F)C2)cc1` (some centres unmarked) [Example 1.059]: the IC50 was found to be 58 nM.
As for `C[C@H](NC(=O)C1CC1)c1ccc(CN2Cc3ccc(OCC4CC4(F)F)cc3C(F)C2)cc1` (some centres unmarked) [Example 1.060], inhibition was half-maximal at 29 nM (IC50).
As for `C[C@H](NC(=O)C1CC1)c1ccc(CN2Cc3ccc(OCC4CC4(F)F)cc3C(O)C2)cc1` (some centres unmarked) [Example 1.061], the IC50 turned out to be 140 nM.
The same measure for `CC(=O)N[C@@H](C)c1ccc(CN2CCc3c(ccc(OCC4(C(F)(F)F)CC4)c3Cl)C2)cc1` [Example 1.062]: 55 nM; for `CC(=O)N[C@@H](C)c1ccc(CN2CCc3cc(OCCC(F)F)ccc3C2)cc1` [Example 1.063]: 45 nM.
